Test results: ChEMBL document CHEMBL3044565, “Pharmacopore hypothesis generation of BACE-1 inhibitors and pharmacophore-driven identification of potent multi-target neuroprotective agents” (Med Chem Res, 2012)
*1 amine or outer side, *2 acyl side, *3 side chain or, on linkers, in order; H or OH if unused. Where a SMILES comes first, the peptide text is derived from it. [ ]: non-standard residue; d: D form. LeuΨ(S-CHOHCH2)Ala = CC(C)C[C@H](N[*:1])[C@@H](O)C[C@@H](C)C(=O)[*:2]

Tests used:
Beta-secretase 1 [1] = biological target: T1, Beta-secretase 1 (Homo sapiens, UniProt P56817); assay: Inhibition of BACE1 (unknown origin) at 10 ug/ml after 1 hr by FRET assay
T1 sequence (P56817 whole entry): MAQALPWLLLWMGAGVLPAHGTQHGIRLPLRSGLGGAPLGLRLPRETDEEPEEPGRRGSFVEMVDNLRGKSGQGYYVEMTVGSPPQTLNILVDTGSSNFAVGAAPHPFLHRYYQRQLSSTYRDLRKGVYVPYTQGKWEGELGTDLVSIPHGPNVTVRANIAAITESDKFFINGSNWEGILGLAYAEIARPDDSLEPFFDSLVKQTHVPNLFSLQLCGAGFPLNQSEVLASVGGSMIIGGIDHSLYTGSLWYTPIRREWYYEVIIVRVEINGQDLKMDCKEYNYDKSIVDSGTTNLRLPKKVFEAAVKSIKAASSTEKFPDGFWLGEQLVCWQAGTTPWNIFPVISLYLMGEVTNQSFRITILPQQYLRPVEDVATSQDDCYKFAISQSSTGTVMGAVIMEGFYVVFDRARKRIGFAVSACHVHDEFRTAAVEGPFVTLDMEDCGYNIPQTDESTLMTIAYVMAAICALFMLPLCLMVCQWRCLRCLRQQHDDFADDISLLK

[2] = Neuroprotective activity in Homo sapiens (human) SH-SY5Y cells assessed as reduction of amyloid beta-induced cell death at 10 ug/ml inubated for 1 hr prior to amyloid beta induction measured after 48 hr by MTT assay; format: functional; design: scale not given: the % may be the effect or the level left
Beta-secretase 1 [3] = biological target: T1, Beta-secretase 1; assay: Inhibition of BACE1 (unknown origin)
Beta-secretase 1 [4] = biological target: T1, Beta-secretase 1; assay: Inhibition of Homo sapiens (human) Beta-secretase 1

Ki (Beta-secretase 1 [3])	IC50 (Beta-secretase 1 [4])	SMILES	inhibition (Beta-secretase 1 [1])	Activity [2]
		O=C(/C=C/c1ccccc1)Nc1nc(-c2ccccc2)cs1	23.6%	
		CCOC(=O)CCC(=O)NC1=NC2CCCCC2S1 (stereo not given)	26.7%	26.1%
		COc1cc(/C=C/C(=O)Nc2nc(-c3ccccc3)cs2)cc(OC)c1	24.5%	
1.6 nM	2 nM	CC(C)C[C@H](NC(=O)[C@H](CC(N)=O)NC(=O)[C@@H](NC(=O)[C@@H](N)CC(=O)O)C(C)C)[C@@H](O)C[C@@H](C)C(=O)N[C@@H](C)C(=O)N[C@@H](CC(=O)O)C(=O)N[C@@H](Cc1ccccc1)C(=O)O (H-DVN[LeuΨ(S-CHOHCH2)Ala]ADF-OH)		
		O=C(Nc1nc(-c2ccccc2)cs1)c1ccncc1	29.1%	8.2%
		CCOC(=O)CCC(=O)Nc1nc(-c2ccccc2)cs1	31.8%	45.5%
